Data: US12077503B2, “Substituted cyclic amides and their use as herbicides” (FMC CORPORATION, priority 2015, dated 2024)

What was measured:
Assay type in all cases: in vivo
[1] = system: ivy-leaved morning glory (Ipomoea hederacea); experiment: Test G Pre-Emergence Protocol; settings: Ipomoea, pre-emergence, 312 h, evaluated after 13 days; for pest or weed control at 15.625 g/ha: 15.625 g ai/ha; for pest or weed control at 15.625 g/ha / pest or weed control at 250 g/ha: read-out: Morningglory, Ivy-leaved damage rating (100=total damage to plant; 0=no damage to plant); for pest or weed control at 62.5 g/ha: 62.5 g ai/ha, 100=total damage to plant, 0=no damage to plant, read-out: Morningglory, Ivy-leaved damage rating; for pest or weed control at 250 g/ha: 250 g ai/ha
Method in brief: (§1)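 Herbicidal effect was rated 13 days post-application on a scale where 100 equals total damage. Spraying took place the day after sowing, using 15.625, 62.5 or 250 g/ha of compound in a 50:50 acetone/water solution with 0.5% Tween 20.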

[2] = system: giant foxtail (Setaria faberi); experiment: Test G Pre-Emergence Protocol; settings: Setaria faberi, pre-emergence, 312 h, evaluated after 13 days; for pest or weed control at 15.625 g/ha: 15.625 g ai/ha; for pest or weed control at 15.625 g/ha / pest or weed control at 250 g/ha: read-out: Foxtail, Giant damage rating (100=total damage to plant; 0=no damage to plant); for pest or weed control at 62.5 g/ha: 62.5 g ai/ha, 100=total damage to plant, 0=no damage to plant, read-out: Foxtail, Giant damage rating; for pest or weed control at 250 g/ha: 250 g ai/ha
Method in brief: as §1

[3] = system: redroot pigweed (Amaranthus retroflexus); experiment: Test G Pre-Emergence Protocol; settings: Amaranthus retroflexus, pre-emergence, 312 h, evaluated after 13 days; for pest or weed control at 15.625 g/ha: 15.625 g ai/ha; for pest or weed control at 15.625 g/ha / pest or weed control at 250 g/ha: read-out: Pigweed, Redroot damage rating (100=total damage to plant; 0=no damage to plant); for pest or weed control at 62.5 g/ha: 62.5 g ai/ha, 100=total damage to plant, 0=no damage to plant, read-out: Pigweed, Redroot damage rating; for pest or weed control at 250 g/ha: 250 g ai/ha
Method in brief: as §1

corn (Zea mays) [4] = experiment: Test G Pre-Emergence Protocol; settings: Zea mays, pre-emergence, 312 h, evaluated after 13 days; for plant injury at 15.625 g/ha: 15.625 g ai/ha; for plant injury at 15.625 g/ha / plant injury at 250 g/ha: read-out: Corn damage rating (100=total damage to plant; 0=no damage to plant); for plant injury at 62.5 g/ha: 62.5 g ai/ha, 100=total damage to plant, 0=no damage to plant, read-out: Corn damage rating; for plant injury at 250 g/ha: 250 g ai/ha
Method in brief: as §1

[5] = system: velvetleaf (Abutilon theophrasti); experiment: Test G Pre-Emergence Protocol; settings: Abutilon theophrasti, pre-emergence, 312 h, evaluated after 13 days; for pest or weed control at 15.625 g/ha: 15.625 g ai/ha; for pest or weed control at 15.625 g/ha / pest or weed control at 250 g/ha: read-out: Velvetleaf damage rating (100=total damage to plant; 0=no damage to plant); for pest or weed control at 62.5 g/ha: 62.5 g ai/ha, 100=total damage to plant, 0=no damage to plant, read-out: Velvetleaf damage rating; for pest or weed control at 250 g/ha: 250 g ai/ha
Method in brief: as §1

[6] = system: barnyardgrass (Echinochloa crus-galli); experiment: Test G Pre-Emergence Protocol; settings: Echinochloa crus-galli, pre-emergence, 312 h, evaluated after 13 days; for pest or weed control at 15.625 g/ha: 15.625 g ai/ha; for pest or weed control at 15.625 g/ha / pest or weed control at 250 g/ha: read-out: Barnyardgrass damage rating (100=total damage to plant; 0=no damage to plant); for pest or weed control at 62.5 g/ha: 62.5 g ai/ha, 100=total damage to plant, 0=no damage to plant, read-out: Barnyardgrass damage rating; for pest or weed control at 250 g/ha: 250 g ai/ha
Method in brief: as §1

[7] = system: ivy-leaved morning glory (Ipomoea hederacea); experiment: Test G Post-Emergence Protocol; settings: Ipomoea, post-emergence, 312 h, read-out: Morningglory, Ivy-leaved damage rating; for pest or weed control at 15.625 g/ha: 15.625 g ai/ha, evaluated after 13 days (100=total damage to plant; 0=no damage to plant); for pest or weed control at 62.5 g/ha: 62.5 g ai/ha; for pest or weed control at 62.5 g/ha / pest or weed control at 250 g/ha: evaluated after 13 days, 100=total damage to plant, 0=no damage to plant; for pest or weed control at 250 g/ha: 250 g ai/ha
Method in brief: (§2)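 Eight days post-sowing, plants received a spray of test compound (acetone/water 50:50, 0.5% Tween 20) at 15.625, 62.5 or 250 g/ha. Glasshouse regime thereafter: 24/16 °C, 14 h light, 65% humidity. Assessment after 13 days on a 0–100 damage scale.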

[8] = system: giant foxtail (Setaria faberi); experiment: Test G Post-Emergence Protocol; settings: Setaria faberi, post-emergence, 312 h, read-out: Foxtail, Giant damage rating; for pest or weed control at 15.625 g/ha: 15.625 g ai/ha, evaluated after 13 days (100=total damage to plant; 0=no damage to plant); for pest or weed control at 62.5 g/ha: 62.5 g ai/ha; for pest or weed control at 62.5 g/ha / pest or weed control at 250 g/ha: evaluated after 13 days, 100=total damage to plant, 0=no damage to plant; for pest or weed control at 250 g/ha: 250 g ai/ha
Method in brief: as §2

[9] = system: redroot pigweed (Amaranthus retroflexus); experiment: Test G Post-Emergence Protocol; settings: Amaranthus retroflexus, post-emergence, 312 h, read-out: Pigweed, Redroot damage rating; for pest or weed control at 15.625 g/ha: 15.625 g ai/ha, evaluated after 13 days (100=total damage to plant; 0=no damage to plant); for pest or weed control at 62.5 g/ha: 62.5 g ai/ha; for pest or weed control at 62.5 g/ha / pest or weed control at 250 g/ha: evaluated after 13 days, 100=total damage to plant, 0=no damage to plant; for pest or weed control at 250 g/ha: 250 g ai/ha
Method in brief: as §2

corn (Zea mays) [10] = experiment: Test G Post-Emergence Protocol; settings: Zea mays, post-emergence, 312 h, read-out: Corn damage rating; for plant injury at 15.625 g/ha: 15.625 g ai/ha, evaluated after 13 days (100=total damage to plant; 0=no damage to plant); for plant injury at 62.5 g/ha: 62.5 g ai/ha; for plant injury at 62.5 g/ha / plant injury at 250 g/ha: evaluated after 13 days, 100=total damage to plant, 0=no damage to plant; for plant injury at 250 g/ha: 250 g ai/ha
Method in brief: as §2

[11] = system: velvetleaf (Abutilon theophrasti); experiment: Test G Post-Emergence Protocol; settings: Abutilon theophrasti, post-emergence, 312 h, read-out: Velvetleaf damage rating; for pest or weed control at 15.625 g/ha: 15.625 g ai/ha, evaluated after 13 days (100=total damage to plant; 0=no damage to plant); for pest or weed control at 62.5 g/ha: 62.5 g ai/ha; for pest or weed control at 62.5 g/ha / pest or weed control at 250 g/ha: evaluated after 13 days, 100=total damage to plant, 0=no damage to plant; for pest or weed control at 250 g/ha: 250 g ai/ha
Method in brief: as §2

[12] = system: barnyardgrass (Echinochloa crus-galli); experiment: Test G Post-Emergence Protocol; settings: Echinochloa crus-galli, post-emergence, 312 h, read-out: Barnyardgrass damage rating; for pest or weed control at 15.625 g/ha: 15.625 g ai/ha, evaluated after 13 days (100=total damage to plant; 0=no damage to plant); for pest or weed control at 62.5 g/ha: 62.5 g ai/ha; for pest or weed control at 62.5 g/ha / pest or weed control at 250 g/ha: evaluated after 13 days, 100=total damage to plant, 0=no damage to plant; for pest or weed control at 250 g/ha: 250 g ai/ha
Method in brief: as §2

Compound | pest or weed control at 15.625 g/ha [1] [%] | pest or weed control at 62.5 g/ha [1] [%] | pest or weed control at 250 g/ha [1] [%] | pest or weed control at 15.625 g/ha [2] [%] | pest or weed control at 62.5 g/ha [2] [%] | pest or weed control at 250 g/ha [2] [%] | pest or weed control at 15.625 g/ha [3] [%] | pest or weed control at 62.5 g/ha [3] [%] | pest or weed control at 250 g/ha [3] [%] | plant injury at 15.625 g/ha (corn (Zea mays) [4]) [%] | plant injury at 62.5 g/ha (corn (Zea mays) [4]) [%] | plant injury at 250 g/ha (corn (Zea mays) [4]) [%] | pest or weed control at 15.625 g/ha [5] [%] | pest or weed control at 62.5 g/ha [5] [%] | pest or weed control at 250 g/ha [5] [%] | pest or weed control at 15.625 g/ha [6] [%] | pest or weed control at 62.5 g/ha [6] [%] | pest or weed control at 250 g/ha [6] [%] | pest or weed control at 15.625 g/ha [7] [%] | pest or weed control at 62.5 g/ha [7] [%] | further results
CN1C[C@H](c2cccc(C(F)(F)F)c2)[C@@H](C(=O)Nc2cc(O)ccc2F)C1=O (racemic) [Compound 1807] | 0 | 0 | 0 | 0 | 0 | 0 | 0 | 0 | 0 | 0 | 0 | 0 | 0 | 0 | 0 | 0 | 0 | 0 | 0 | 0 | pest or weed control at 250 g/ha [7]: 0%; pest or weed control at 15.625 g/ha [8]: 0%; pest or weed control at 62.5 g/ha [8]: 0%; pest or weed control at 250 g/ha [8]: 0%; pest or weed control at 15.625 g/ha [9]: 0%; pest or weed control at 62.5 g/ha [9]: 0%; pest or weed control at 250 g/ha [9]: 0%; plant injury at 15.625 g/ha (corn (Zea mays) [10]): 0%; plant injury at 62.5 g/ha (corn (Zea mays) [10]): 0%; plant injury at 250 g/ha (corn (Zea mays) [10]): 0%; pest or weed control at 15.625 g/ha [11]: 0%; pest or weed control at 62.5 g/ha [11]: 0%; pest or weed control at 250 g/ha [11]: 0%; pest or weed control at 15.625 g/ha [12]: 0%; pest or weed control at 62.5 g/ha [12]: 0%; pest or weed control at 250 g/ha [12]: 0%
CN1C[C@H](c2cccc(C(F)(F)F)c2)[C@@H](C(=O)Nc2c(O)cccc2F)C1=O (racemic) [Compound 1808] | 0 | 0 | 10 | 0 | 20 | 70 | 0 | 0 | 20 | 0 | 0 | 0 | 0 | 0 | 10 | 0 | 0 | 40 | 0 | 0 | pest or weed control at 250 g/ha [7]: 0%; pest or weed control at 15.625 g/ha [8]: 0%; pest or weed control at 62.5 g/ha [8]: 30%; pest or weed control at 250 g/ha [8]: 60%; pest or weed control at 15.625 g/ha [9]: 0%; pest or weed control at 62.5 g/ha [9]: 0%; pest or weed control at 250 g/ha [9]: 0%; plant injury at 15.625 g/ha (corn (Zea mays) [10]): 0%; plant injury at 62.5 g/ha (corn (Zea mays) [10]): 0%; plant injury at 250 g/ha (corn (Zea mays) [10]): 0%; pest or weed control at 15.625 g/ha [11]: 0%; pest or weed control at 62.5 g/ha [11]: 0%; pest or weed control at 250 g/ha [11]: 0%; pest or weed control at 15.625 g/ha [12]: 0%; pest or weed control at 62.5 g/ha [12]: 20%; pest or weed control at 250 g/ha [12]: 60%
